Molecules are shown by their SMILES.

Two compounds from patent US20250134921A1, “[…] ACID GLY[…] THEIR USES FOR TREATING INFECTIOUS DISEASES” (priority 2021, published 2025) can be followed below.

Assay [1] concerns the target T1, SARS-CoV-2 spike S1 subunit (Severe acute respiratory syndrome coronavirus 2, UniProt P0DTC2).
T1 construct: 50 μL of S1-subunit protein solution (0.1 mg·mL^−1, Genscript Z03501); purchased Genscript Z03501
In kind it is binding.

In assay [2] the test system is UV-inactivated SARS-CoV-2 virions. In kind it is binding.
Another assay addresses T2, SARS-CoV-2 S1 subunit (Severe acute respiratory syndrome coronavirus 2, UniProt P0DTC2).
T2 construct: 50 μL of S1-subunit protein solution (0.1 mg·mL^−1, Genscript Z03501); purchased Genscript Z03501
Briefly: biochemical. The format is binding.

For assay [3], the system named is VSV-SARS-CoV-2 (SARS-CoV-2 spike pseudotyped VSV). In kind it is cell-based.

As to `CC(=O)N[C@H]1C([C@H](O)[C@H](O)COC(C)=O)O[C@](O)(C(=O)O)C[C@H]1O` (some centres unmarked) [Compound 9-AcSA, 9-O-acetyl-sialic acid], in assay [1], the “binding probability (BP) in competition assay” value was “significantly lower binding probability”. Moreover, the “reduction in the binding frequency (BF)” value in assay [2] is listed as 20-30%. The Kd at SARS-CoV-2 S1 subunit was 5.7 ± 5 µM. Also, on SARS-CoV-2 S1 subunit (read-out: association rate (kon)), the kon came out at 42000 M⁻¹ s⁻¹.

In the case of `CC(=O)N[C@H]1[C@H]([C@H](O)[C@H](O)COC(C)=O)OC(O)(C(=O)O)C[C@@H]1O` (some centres unmarked) [Compound 9-AcSA, 9-O-acetyl-sialic acid], in assay [3], the “reduction of VSV-SARS-CoV-2 infectivity” value is on record as “did not significantly reduce”.

A word on the Kd: it is the constant that tells how readily two partners part at equilibrium. A high value points to weaker binding. The kon is the second-order rate constant of association.
